From ChEMBL document CHEMBL1154494, “A highly sensitive fluorogenic probe for cytochrome P450 activity in live cells” (Bioorg Med Chem Lett, 2008)
Active and inactive are the calls of the source. No cut-off for these calls is given here.

Columns and labels:
A549 [1] = experiment: Induction of CYP1A1 level in human A549 cells at 10 uM after 1 hr using Hoechst staining by fluorogenic assay; type: functional, cell-based
A549 [2] = experiment: Inhibition of CYP1A1 level in human A549 cells at 10 uM after 1 hr using Hoechst staining by fluorogenic assay in presence of CYP1A1 inducer TCDD and CYP1A1 inhibitior resveratrol; type: functional, cell-based
A549 [3] = experiment: Induction of CYP1A1 level in human A549 cells at 10 uM after 1 hr using Hoechst staining by fluorogenic assay in presence of CYP1A1 inducer TCDD; type: functional, cell-based
[4] = substrate: CCOc1cc(C)cc(C)c1C(C)(C)CC(=O)Nc1ccc2c(c1)Oc1cc(NC(=O)N3CCOCC3)ccc1C21Oc2ccccc2C1=O; experiment: Activity of human CYP1A1 by fluorogenic assay; type: ADME

Row | Molecule | Activity (A549 [1]) | Activity (A549 [2]) | Activity (A549 [3]) | Km [4] [µM] | kcat/Km [4] [M⁻¹ s⁻¹]
1 | CCOc1cc(C)cc(C)c1C(C)(C)CC(=O)Nc1ccc2c(c1)Oc1cc(NC(=O)N3CCOCC3)ccc1C21OC(=O)c2ccccc21 (stereo not given) | Active | Active | Active |  | 
2 | Cytochrome P450 1A1 (Homo sapiens) (protein) MLFPISMSATEFLLASVIFCLVFWVIRASRPQVPKGLKNPPGPWGWPLIGHMLTLGKNPHLALSRMSQQYGDVLQIRIGSTPVVVLSGLDTIRQALVRQGDDFKGRPDLYTFTLISNGQSMSFSPDSGPVWAARRRLAQNGLKSFSIASDPASSTSCYLEEHVSKEAEVLISTLQELMAGPGHFNPYRYVVVSVTNVICAICFGRRYDHNHQELLSLVNLNNNFGEVVGSGNPADFIPILRYLPNPSLNAFKDLNEKFYSFMQKMVKEHYKTFEKGHIRDITDSLIEHCQEKQLDENANVQLSDEKIINIVLDLFGAGFDTVTTAISWSLMYLVMNPRVQRKIQEELDTVIGRSRRPRLSDRSHLPYMEAFILETFRHSSFVPFTIPHSTTRDTSLKGFYIPKGRCVFVNQWQINHDQKLWVNPSEFLPERFLTPDGAIDKVLSEKVIIFGMGKRKCIGETIARWEVFLFLAILLQRVEFSVPLGVKVDMTPIYGLTMKHACCEHFQMQLRS |  |  |  | 0.09 | 8800
